Results reported in patent publication US20210261561A1, “BICYCLIC HETEROCYCLE DERIVATIVES HAVING SELECTIVE BACE1 INHIBITORY ACTIVITY” (SHIONOGI & CO., LTD., priority 2018, published 2021).

What was measured:
BACE1 [1] = biological target: T1, BACE1 (Homo sapiens, UniProt P56817); test: BACE1 biochemical FRET based assay (Test Example 2-1); conditions: for selectivity: BACE2 IC50 over BACE1 IC50 (FRET); for IC50: FRET, 0.04 μg/mL BACE1, 450 minutes, Citrate buffer pH 5.0
Source text: (§1) This assay is a Fluorescence Resonance Energy Transfer Assay (FRET) based assay. The substrate for this assay is an APP derived 13 amino acids peptide that contains the ‘Swedish’ Lys-Met/Asn-Leu mutation of the amyloid precursor protein (APP) beta-site secretase cleavage site. This substrate also contains two fluorophores: (7-methoxycoumarin-4-yl) acetic acid (Mca) is a fluorescent donor with excitation wavelength at 320 nm and emission at 405 nm and 2,4-dinitrophenol (Dnp) is a proprietary quencher acceptor. […] Upon cleavage by BACE1, the fluorophore Mca is separated from the quenching group Dnp, restoring the full fluorescence yield of the donor. The increase in fluorescence is linearly related to the rate of proteolysis.
(§2) Briefly in a 384-well format recombinant BACE1 protein in a final concentration of 0.04 μg/mL is incubated for 450 minutes at room temperature with […] substrate in incubation buffer (final concentrations: 33.3 mM Citrate buffer pH 5.0, 0.033% PEG, 3% DMSO) in the absence or presence of compound. Next the amount of proteolysis is directly measured by fluorescence measurement at T=0′-120′ and T=450′ (excitation at 320 nm and emission at 405 nm). Results are expressed in RFU (Relative Fluorescence Units), as difference between T450 and Tx (Tx is chosen depending on the reaction speed between 0 and 120 minutes.).
A best-fit curve is fitted by a minimum sum of squares method to the plot of % Controlmin versus compound concentration. From this an IC50 value (inhibitory concentration causing 50% inhibition of activity) can be obtained.

BACE2 [2] = biological target: T2, BACE2 (Homo sapiens, UniProt Q9Y5Z0); test: BACE2 biochemical FRET based assay (Test Example 2-1 (2)); conditions: 0.4 μg/mL BACE2, 450 minutes, Citrate buffer pH 5.0
T2 sequence (Q9Y5Z0 63-518): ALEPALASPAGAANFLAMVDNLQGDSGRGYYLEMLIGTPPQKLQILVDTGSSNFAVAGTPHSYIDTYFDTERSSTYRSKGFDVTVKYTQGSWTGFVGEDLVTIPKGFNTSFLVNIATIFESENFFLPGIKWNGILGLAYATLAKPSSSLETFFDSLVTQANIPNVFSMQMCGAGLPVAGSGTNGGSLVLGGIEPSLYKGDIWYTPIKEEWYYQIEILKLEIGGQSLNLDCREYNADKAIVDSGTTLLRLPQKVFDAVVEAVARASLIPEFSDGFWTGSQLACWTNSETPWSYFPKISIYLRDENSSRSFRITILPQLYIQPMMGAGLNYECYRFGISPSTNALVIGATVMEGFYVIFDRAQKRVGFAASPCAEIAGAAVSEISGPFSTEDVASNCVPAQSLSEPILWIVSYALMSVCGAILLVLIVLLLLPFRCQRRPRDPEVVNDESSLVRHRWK
Source text: This assay is a Fluorescence Resonance Energy Transfer Assay (FRET) based assay. The substrate for this assay contains the ‘Swedish’ Lys-Met/Asn-Leu mutation of the amyloid precursor protein (APP) beta-secretase cleavage site. This substrate also contains two fluorophores: (7-methoxycoumarin-4-yl) acetic acid (Mca) is a fluorescent donor with excitation wavelength at 320 nm and emission at 405 nm and 2,4-dinitrophenol (Dnp) is a proprietary quencher acceptor. […] Upon cleavage by the beta-secretase, the fluorophore Mca is separated from the quenching group Dnp, restoring the full fluorescence yield of the donor. The increase in fluorescence is linearly related to the rate of proteolysis. Briefly in a 384-well format recombinant BACE2 protein in a final concentration of 0.4 μg/mL was incubated for 450 minutes at room temperature with 10 μM substrate in incubation buffer (final concentrations: 33.3 mM Citrate buffer pH 5.0, 0.033% PEG, 2% DMSO) in the absence or presence of compound. Next the amount of proteolysis was directly measured by fluorescence measurement at T=0 and T=450 (excitation at 320 nm and emission at 405 nm). Results were expressed in RFU (Relative Fluorescence Units), as difference between T450 and TO.
A best-fit curve was fitted by a minimum sum of squares method to the plot of % Controlmin versus compound concentration. From this an IC50 value (inhibitory concentration causing 50% inhibition of activity) can be obtained.

BACE1 [3] = biological target: T1, BACE1; test: BACE1 cellular αLisa assay in SKNBE2 cells, Abeta 1-42 (Test Example 2-3); type: cell-based; set-up: endogenous in cells; host or cells: SKNBE2 human neuroblastoma cells expressing hAPP695; conditions: SKNBE2 cells expressing hAPP695, 18 hours incubation, read-out: Cellular αLisa assay in SKNBE2 cells Abeta 42 pIC50 (converted)
Protocol: In two αLisa assays the levels of Abeta 1-42 or Abeta total produced and secreted into the medium of human neuroblastoma SKNBE2 cells are quantified. The assays are based on the human neuroblastoma SKNBE2 expressing the wild type Amyloid Precursor Protein (hAPP695). The compounds are diluted and added to these cells, incubated for 18 hours and then measurements of Abeta 1-42 or Abeta total are taken. Abeta 1-42 or Abeta total are measured by sandwich αLisa using biotinylated antibody AbN/25 attached to streptavidin coated donor beads and antibody cAb42/26 or Ab 4G8 conjugated acceptor beads for the detection of Abeta 1-42 or Abeta total respectively. In the presence of Abeta 1-42 or Abeta total, the beads come into close proximity. The excitation of the donor beads provokes the release of singlet oxygen molecules that trigger a cascade of energy transfer in the acceptor beads, resulting in light emission. Light emission is measured after 1 h incubation (excitation at […] and emission at 615 nm).
(§3) Data are analysed using Screener (Registered trademark) (Genedata, Switzerland). Data were normalized and % inhibition=100−[(sample−LC)/(HC−LC))*100], was plotted versus the log concentration of the test compound. Curves were analysed using non-linear regression analysis and IC50 values (inhibitory concentration causing 50% inhibition of activity) were derived from individual curves.
LC=Median of the low control values • =Low control: Reaction without enzyme
HC=Median of the High control values • =High Control: Reaction with enzyme
(§4) % Inhibition=100−[(sample−LC)/(HC−LC)*100]

BACE2 [4] = biological target: T2, BACE2; test: BACE2 biochemical FRET based assay (Test Example 2-4); conditions: recombinant BACE2 0.4 μg/mL, 10 μM substrate, 450 minutes, pH 5.0; read-out: BACE2 Biochemical FRET based assay pIC50 (converted)
Source text: as §1, with “assay” for “assay is an APP derived 13 amino acids peptide that”, “beta-secretase” for “beta-site secretase”, “the beta-secretase,” for “BACE1,”
Briefly in a 384-well format recombinant BACE2 protein in a final concentration of 0.4 μg/mL is incubated for 450 minutes at room temperature with 10 μM substrate in incubation buffer (final concentrations: 33.3 mM Citrate buffer pH 5.0, 0.033% PEG, 2% DMSO) in the absence or presence of compound. Next the amount of proteolysis is directly measured by fluorescence measurement at T=0 and T=450 (excitation at 320 nm and emission at 405 nm). Results are expressed in RFU (Relative Fluorescence Units), as difference between T450 and TO.
as §3
(§5) LC=Median of the low control values
(§6) =Low control: Reaction without enzyme
(§7) HC=Median of the High control values
(§8) =High Control: Reaction with enzyme
as §4

BACE2 [5] = biological target: T3, BACE2 (Mus musculus, UniProt Q9JL18); test: BACE2 cellular assay in MIN6 cells, secreted TMEM27 (Test Example 2-5); type: cell-based; conditions: 24 hours incubation, secreted TMEM27 by MSD, read-out: Cellular MSD assay in Min6 cells TV1EV127 pIC50 (converted)
T3 construct: endogenous in cells; host or cells: MIN6 mouse insulinoma cells expressing Flag-V5-TMEM27-HA
T3 sequence (Q9JL18 63-514): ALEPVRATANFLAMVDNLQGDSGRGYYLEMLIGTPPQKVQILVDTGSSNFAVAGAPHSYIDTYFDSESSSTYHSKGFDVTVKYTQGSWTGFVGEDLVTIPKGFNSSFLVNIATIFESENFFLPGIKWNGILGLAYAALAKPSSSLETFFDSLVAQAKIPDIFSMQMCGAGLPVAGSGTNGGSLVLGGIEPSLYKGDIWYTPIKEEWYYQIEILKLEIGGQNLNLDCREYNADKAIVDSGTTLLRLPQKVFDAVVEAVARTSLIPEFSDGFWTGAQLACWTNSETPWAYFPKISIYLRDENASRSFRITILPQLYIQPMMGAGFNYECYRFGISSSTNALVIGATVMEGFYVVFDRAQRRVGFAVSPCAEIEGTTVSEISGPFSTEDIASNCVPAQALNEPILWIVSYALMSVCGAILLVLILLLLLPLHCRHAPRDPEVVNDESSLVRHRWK
Protocol: Cellular BACE2 activity was measured by determination of the level of secreted TMEM27 into the medium of MIN6 cells using an MSD platform. The assay is based on the mouse insulinoma MIN6 cells expressing Flag-V5-TMEM27-HA. When BACE2 cleaves TMEM27 the N-terminal part of TMEM27 with the V5-Flag tag will be shed into the medium, and the amount of this cleaved product is measured with the MSD assay.
Briefly in a 96-well format the cells are incubated for 24 hours in the presence of the compound followed by the measurement of secreted TMEM27 in the medium via MSD using FLAG-L5 coating antibody and a V5 detection antibody. When TMEM27 is captured on the electrode surface of the multi-array microplate the detection antibody, conjugated with the sulfo-Tag™, is in close proximity of the surface, it generates a light via a series of reduction and oxidation reactions. The intensity of the emitted light is measured with the MSD imager to provide a quantitative measure for the analytes in the sample.
as §3, §5, §6, §7, §8, §4

BACE1 [6] = biological target: T1, BACE1; test: BACE1 biochemical FRET based assay - Method 1 (Test Example 2-2); conditions: 0.04 μg/mL BACE1, 450 minutes, Citrate buffer pH 5.0, read-out: BACE1 Biochemical FRET based assay - Method 1 PIC50 (converted)
Source text: as §1, §2, §3, §5, §6, §7, §8, §4

T1 sequence (P56817 46-501): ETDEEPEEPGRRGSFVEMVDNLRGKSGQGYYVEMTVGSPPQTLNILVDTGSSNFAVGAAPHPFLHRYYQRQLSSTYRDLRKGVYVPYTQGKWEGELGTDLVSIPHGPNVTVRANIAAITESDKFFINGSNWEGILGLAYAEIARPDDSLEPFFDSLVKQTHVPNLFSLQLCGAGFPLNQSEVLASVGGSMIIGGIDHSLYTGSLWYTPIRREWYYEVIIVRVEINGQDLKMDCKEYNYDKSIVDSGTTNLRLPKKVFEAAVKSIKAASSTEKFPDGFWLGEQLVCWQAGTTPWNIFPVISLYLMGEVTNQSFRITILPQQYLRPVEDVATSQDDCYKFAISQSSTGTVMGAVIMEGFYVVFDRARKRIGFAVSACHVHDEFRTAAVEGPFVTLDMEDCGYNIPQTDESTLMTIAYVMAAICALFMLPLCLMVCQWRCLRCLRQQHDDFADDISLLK

In the case of C[C@H]1OC[C@H]2OC(N)=N[C@](CF)(c3cc(NC(=O)c4cc5c(cn4)OC(F)(F)CO5)ccc3F)[C@@H]12 [Compound I-039], the selectivity (BACE1 [1]) is reported as 218, the IC50 (BACE1 [1]) is reported as 2.24 nM and the IC50 (BACE2 [2]) is reported as 490 nM.
Work on CC[C@@H]1OC[C@H]2OC(N)=N[C@](CF)(c3cc(NC(=O)c4cc5c(cn4)OC(F)(F)CO5)ccc3F)[C@@H]12 [Compound I-040] yielded a selectivity (BACE1 [1]) of 257, an IC50 (BACE1 [1]) of 7.94 nM and an IC50 (BACE2 [2]) of 2040 nM.
NC1=N[C@](CF)(c2cc(NC(=O)c3cc4c(cn3)OC(F)(F)CO4)ccc2F)[C@H]2OCC[C@H]2O1 [Compound I-043] gave a selectivity (BACE1 [1]) of 234, an IC50 (BACE1 [1]) of 9.77 nM and an IC50 (BACE2 [2]) of 2290 nM.
Compound C[C@@H]1OC[C@H]2OC(N)=N[C@](CF)(c3cc(NC(=O)c4cc5c(cn4)OC(F)(F)CO5)ccc3F)[C@@H]12 [Compound I-044] has a selectivity (BACE1 [1]) of 131, an IC50 (BACE1 [1]) of 14.5 nM and an IC50 (BACE2 [2]) of 1910 nM.
C[C@H]1OC[C@H]2[C@@H]1OC(N)=N[C@]2(CF)c1cc(NC(=O)c2cc3c(cn2)OC(F)(F)O3)ccc1F [Compound I-050] showed a selectivity (BACE1 [1]) of 199, an IC50 (BACE1 [1]) of 5.37 nM and an IC50 (BACE2 [2]) of 1070 nM.
C[C@@H]1C[C@H]2OC(N)=N[C@](CF)(c3cc(NC(=O)c4cc5c(cn4)OCCO5)ccc3F)[C@H]2CO1 [Compound I-054] showed a selectivity (BACE1 [1]) of 646, an IC50 (BACE1 [1]) of 9.33 nM and an IC50 (BACE2 [2]) of 6030 nM.
Compound NC1=N[C@](CF)(c2cc(NC(=O)c3cc4c(cn3)OC(F)(F)CO4)ccc2F)[C@H]2CO[C@H](CF)C[C@H]2O1 [Compound I-057] has a selectivity (BACE1 [1]) of 389, an IC50 (BACE1 [1]) of 2.57 nM and an IC50 (BACE2 [2]) of 1000 nM.
CC1(S(C)(=O)=O)CCC(CF)(c2cc(NC(=O)c3cc4c(cn3)OCC(F)O4)ccc2F)N=C1N (centres unmarked) [II-11] showed an IC50 (BACE1 [3]) of 3.55 nM, an IC50 (BACE2 [4]) of 331 nM and an IC50 (BACE2 [5]) of 363 nM. The IC50 (BACE1 [6]) was 6.46 nM.
In the case of [2H]C1([2H])Oc2cnc(C(=O)Nc3ccc(F)c(C4(CF)CCC(C)(S(C)(=O)=O)C(N)=N4)c3)c(F)c2OC1([2H])[2H] (centres unmarked) [II-12], the IC50 (BACE1 [3]) is reported as 2.57 nM, the IC50 (BACE2 [4]) is reported as 372 nM and the IC50 (BACE2 [5]) is reported as 661 nM. For the same compound, the IC50 (BACE1 [6]) was 4.07 nM.
Cc1c(C(=O)Nc2ccc(F)c(C3(CF)CCC(C)(S(C)(=O)=O)C(N)=N3)c2)ncc2c1OCC(F)(F)O2 (centres unmarked) [II-15] gave an IC50 (BACE1 [3]) of 22.9 nM, an IC50 (BACE2 [4]) of 331 nM and an IC50 (BACE2 [5]) of 427 nM. For the same compound, the IC50 (BACE1 [6]) was 11.7 nM.
Work on CCS(=O)(=O)C1(CF)CCC(C)(c2cc(NC(=O)c3cc4c(cn3)OC(F)(F)CO4)ccc2F)N=C1N (centres unmarked) [II-34] yielded an IC50 (BACE1 [3]) of 3.31 nM, an IC50 (BACE2 [4]) of 155 nM and an IC50 (BACE2 [5]) of 295 nM. It also gave an IC50 (BACE1 [6]) of 3.24 nM.
With CCS(=O)(=O)[C@]1(CF)CC[C@@](C)(c2cc(NC(=O)c3cc4c(cn3)OC(F)(F)O4)ccc2F)N=C1N [II-35] the IC50 (BACE1 [3]) was 9.77 nM, the IC50 (BACE2 [4]) was 295 nM and the IC50 (BACE2 [5]) was 617 nM. For the same compound, the IC50 (BACE1 [6]) was 5.37 nM.
